Literature values in patent publication US12054764B2, “High-throughput screens for exploring biological functions of microscale biological systems” (THE BROAD INSTITUTE, INC., priority 2017, dated 2024).
Converted amounts (≈) assume the structure as drawn.

Tested on: E. coli
Settings: stated in the legend of FIG. 10 as the loading concentration in 2% ultra-low melt agarose droplets

SMILES: CC1(C)S[C@@H]2[C@H](NC(=O)[C@H](N)c3ccccc3)C(=O)N2[C@H]1C(=O)O [Ampicillin]
- minimum inhibitory concentration (MIC): 5 µg/mL (≈ 14.3 µM)
